In ChEMBL document CHEMBL4814040 (Bioorg Med Chem Lett, 2021):

Assays:
MAO-A = molecular target: T1, MAO-A (Homo sapiens, UniProt P21397); assay: Inhibition of MAO-A (unknown origin) at 10 uM relative to control
T1 sequence (P21397 whole entry): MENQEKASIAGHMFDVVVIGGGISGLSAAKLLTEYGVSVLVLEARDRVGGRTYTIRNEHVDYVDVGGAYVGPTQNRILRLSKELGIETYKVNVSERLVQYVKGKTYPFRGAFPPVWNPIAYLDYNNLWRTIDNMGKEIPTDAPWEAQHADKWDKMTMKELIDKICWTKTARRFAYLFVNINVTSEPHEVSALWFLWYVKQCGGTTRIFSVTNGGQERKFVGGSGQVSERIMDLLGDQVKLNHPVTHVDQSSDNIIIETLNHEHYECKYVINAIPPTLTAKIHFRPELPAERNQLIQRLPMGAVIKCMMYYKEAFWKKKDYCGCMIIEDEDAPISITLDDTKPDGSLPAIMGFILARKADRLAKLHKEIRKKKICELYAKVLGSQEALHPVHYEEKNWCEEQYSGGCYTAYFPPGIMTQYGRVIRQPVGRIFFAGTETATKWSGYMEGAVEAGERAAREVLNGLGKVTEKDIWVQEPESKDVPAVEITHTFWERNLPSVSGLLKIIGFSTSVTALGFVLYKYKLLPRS

MAO-B = molecular target: T2, MAO-B (Homo sapiens, UniProt P27338); assay: Inhibition of MAO-B (unknown origin) at 10 uM relative to control
T2 sequence (P27338 whole entry): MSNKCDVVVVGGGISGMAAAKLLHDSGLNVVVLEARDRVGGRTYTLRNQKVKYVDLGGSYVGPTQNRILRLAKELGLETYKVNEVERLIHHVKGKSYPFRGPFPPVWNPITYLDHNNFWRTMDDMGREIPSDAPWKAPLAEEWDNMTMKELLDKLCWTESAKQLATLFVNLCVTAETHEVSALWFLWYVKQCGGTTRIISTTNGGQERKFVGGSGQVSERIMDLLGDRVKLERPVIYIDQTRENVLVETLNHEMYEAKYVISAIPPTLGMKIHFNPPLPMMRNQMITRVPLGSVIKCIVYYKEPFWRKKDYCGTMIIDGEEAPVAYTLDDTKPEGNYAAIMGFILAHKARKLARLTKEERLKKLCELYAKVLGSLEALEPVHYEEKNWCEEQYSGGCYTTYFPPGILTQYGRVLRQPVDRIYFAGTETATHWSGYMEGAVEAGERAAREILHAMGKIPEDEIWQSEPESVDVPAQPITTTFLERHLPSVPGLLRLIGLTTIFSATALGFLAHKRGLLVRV

PC-3 = assay: cells; details: Homo sapiens, PC-3, read-out: INH
Description: Antiproliferative activity against human PC-3 cells assessed as cell growth inhibition at 16 uM relative to control

MCF7 = assay: cells; details: Homo sapiens, MCF7, read-out: INH
Description: Antiproliferative activity against human MCF7 cells assessed as cell growth inhibition at 16 uM relative to control

MGC-803 = assay: cells; details: Homo sapiens, MGC-803, read-out: INH
Description: Antiproliferative activity against human MGC803 cells assessed as cell growth inhibition at 16 uM relative to control

SGC-7901 = assay: cells; details: Homo sapiens, SGC-7901, read-out: INH
Description: Antiproliferative activity against human SGC7901 cells assessed as cell growth inhibition at 16 uM relative to control

`Fc1ccc([C@@H]2C[C@H]2NCc2cn(-c3cccc(C(F)(F)F)c3)nn2)cc1F` was tested, and the inhibition at 10 µM (MAO-A) was 90% and the inhibition at 10 µM (MAO-B) was 43%.
In the case of `FC(F)(F)c1ccc(-n2cc(CN[C@@H]3C[C@H]3c3ccccc3)nn2)cc1`, the inhibition at 10 µM (MAO-A) is reported as 101% and the inhibition at 10 µM (MAO-B) is reported as 86%.
`COc1ccc(-n2cc(CN[C@@H]3C[C@H]3c3ccccc3)nn2)cc1` was tested, and the inhibition at 10 µM (MAO-A) was 99% and the inhibition at 10 µM (MAO-B) was 55%.
`Fc1ccc([C@@H]2C[C@H]2NCc2cn(-c3ccc(C(F)(F)F)cc3)nn2)cc1F` showed an inhibition at 10 µM (MAO-A) of 101% and an inhibition at 10 µM (MAO-B) of 82%.
`COc1cccc(-n2cc(CN[C@@H]3C[C@H]3c3ccc(F)c(F)c3)nn2)c1` showed an inhibition at 10 µM (MAO-A) of 102% and an inhibition at 10 µM (MAO-B) of 65%.
For `COc1ccc(OC)c(-n2cc(CN[C@@H]3C[C@H]3c3ccc(F)c(F)c3)nn2)c1`, the inhibition at 10 µM (MAO-A) was 89%, the inhibition at 10 µM (MAO-B) was 48% and the inhibition at 16 µM (PC-3) was 21.8%. For the same compound, the inhibition at 16 µM (MCF7) was 33.6%, the inhibition at 16 µM (MGC-803) was 24.5% and the inhibition at 16 µM (SGC-7901) was 27.7%.
`COc1ccc(-n2cc(CN[C@@H]3C[C@H]3c3ccc(F)c(F)c3)nn2)cc1` showed an inhibition at 10 µM (MAO-A) of 100%, an inhibition at 10 µM (MAO-B) of 64% and an inhibition at 16 µM (PC-3) of 25.2%. For the same compound, the inhibition at 16 µM (MCF7) was 37.3%, the inhibition at 16 µM (MGC-803) was 16.3% and the inhibition at 16 µM (SGC-7901) was 42%.
Work on `FC(F)(F)c1cccc(-n2cc(CN[C@@H]3C[C@H]3c3ccccc3)nn2)c1` yielded an inhibition at 10 µM (MAO-A) of 101% and an inhibition at 10 µM (MAO-B) of 94%.
In the case of `c1ccc([C@@H]2C[C@H]2NCc2cn(-c3ccccc3)nn2)cc1`, the inhibition at 10 µM (MAO-A) is reported as 102% and the inhibition at 10 µM (MAO-B) is reported as 76%.
Compound `FC(F)(F)c1cc(-n2cc(CN[C@@H]3C[C@H]3c3ccccc3)nn2)cc(C(F)(F)F)c1` has an inhibition at 10 µM (MAO-A) of 92% and an inhibition at 10 µM (MAO-B) of 88%.
Work on `COc1ccccc1-n1cc(CN[C@@H]2C[C@H]2c2ccc(F)c(F)c2)nn1` yielded an inhibition at 10 µM (MAO-A) of 90% and an inhibition at 10 µM (MAO-B) of 51%.
With `COc1ccc(OC)c(-n2cc(CN[C@@H]3C[C@H]3c3ccccc3)nn2)c1` the inhibition at 10 µM (MAO-A) was 97% and the inhibition at 10 µM (MAO-B) was 58%.
`COc1cc(OC)cc(-n2cc(CN[C@@H]3C[C@H]3c3ccc(F)c(F)c3)nn2)c1` was tested, and the inhibition at 10 µM (MAO-A) was 93% and the inhibition at 10 µM (MAO-B) was 42%.
Compound `COc1ccccc1-n1cc(CN[C@@H]2C[C@H]2c2ccccc2)nn1` has an inhibition at 10 µM (MAO-A) of 91% and an inhibition at 10 µM (MAO-B) of 44%.
With `COc1cccc(-n2cc(CN[C@@H]3C[C@H]3c3ccccc3)nn2)c1` the inhibition at 10 µM (MAO-A) was 93% and the inhibition at 10 µM (MAO-B) was 54%.
For `Fc1ccc([C@@H]2C[C@H]2NCc2cn(-c3cc(C(F)(F)F)cc(C(F)(F)F)c3)nn2)cc1F`, the inhibition at 10 µM (MAO-A) was 91% and the inhibition at 10 µM (MAO-B) was 35%.
Work on `COc1cc(OC)cc(-n2cc(CN[C@@H]3C[C@H]3c3ccccc3)nn2)c1` yielded an inhibition at 10 µM (MAO-A) of 101% and an inhibition at 10 µM (MAO-B) of 67%.
